ChEMBL document CHEMBL4610086, “N-Acylethanolamine Acid Amidase (NAAA): Structure, Function, and Inhibition” (J Med Chem, 2020)

Tests used:
[1] = biological target: T1, N-acylethanolamine-hydrolyzing acid amidase (Homo sapiens, UniProt Q02083); assay: Inhibition of human NAAA
T1 sequence (Q02083 whole entry): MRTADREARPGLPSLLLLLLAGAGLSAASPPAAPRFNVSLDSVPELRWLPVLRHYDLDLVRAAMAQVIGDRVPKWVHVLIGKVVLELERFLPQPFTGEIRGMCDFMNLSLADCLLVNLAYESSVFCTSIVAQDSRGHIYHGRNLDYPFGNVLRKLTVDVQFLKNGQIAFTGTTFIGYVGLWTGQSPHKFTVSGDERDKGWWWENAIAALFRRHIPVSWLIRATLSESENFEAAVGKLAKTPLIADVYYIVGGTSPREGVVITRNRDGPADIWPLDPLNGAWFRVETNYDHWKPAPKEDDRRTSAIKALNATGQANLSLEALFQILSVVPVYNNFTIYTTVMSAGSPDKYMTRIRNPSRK

[2] = biological target: T1, N-acylethanolamine-hydrolyzing acid amidase; assay: Inhibition of NAAA (unknown origin)
[3] = Blood brain barrier permeability in human; assay type: ADME; conditions: read-out: BPR
[4] = biological target: T1, N-acylethanolamine-hydrolyzing acid amidase; assay: Inhibition of human NAAA expressed in HEK293 cell membranes using [3H]-N-palmitoylethanolamine as substrate after 30 mins by liquid scintillation counting assay

CCCCc1ccc(O[C@@H]2C[C@H]3CC[C@@H](C2)N3CS(=O)(=O)c2c(C)n[nH]c2C)cc1
IC50 [1]: 23 nM

O=C(CCc1ccc(-c2ccccc2)cc1)N1CCCC1
IC50 [2]: 3.1 µM

CCS(=O)(=O)c1ccccc1C(=O)N1CCN(c2nc3ccc(F)cc3s2)C[C@@H]1C
Kp [3]: 0.2

CCCCCCCCCCCCCCCC(=O)OC1CCCC1 [CYCLOPENTYL PALMITATE]
IC50 [4]: > 30 µM
